{"source": "patent US20100256196A1", "about": "“Biomarkers for Atherosclerosis” (IKFE, priority 2008, published 2010)", "key": {"MIF": {"system": "MIF", "conditions": "six week treatment, eight non-diabetic patients with obesity; cited from earlier work"}, "[1]": {"system": "NFκB and NFκB-modulated cytokines in circulating peripheral mononuclear cells", "assay": "mRNA expression in circulating mononuclear cells (CD14+ monocytes/macrophages), calibrator-normalized relative quantification by LightCycler PCR", "assay_type": "in vivo, human", "conditions": "normalized ratio, reference gene β-actin, mean ± SD", "text": "Blood for the measurement of fasting glucose, MMP-9, and hsCRP was taken at baseline and after 3, 7, 10, 14 and 28 days of study treatment. Blood for assessment of the mRNA expression profile of circulating mononuclear cells as well as for assessment of circulating plasma levels of HbAlc, Insulin, Intact Proinsulin, Adiponectin, IL-6, sCD40L, P-Selectin, MIF, Angiotensin II, complement factor 3, and blood lipids were obtained at baseline and at the end of the study. Insulin resistance was calculated using the HOMAIR score at baseline and study endpoint as published previously (29, 30).\nIsolation of MNC from whole blood was performed as a density gradient centrifugation by means of the ACCUSPIN System-HISTOPAQUE-1077 (Sigma-Aldrich Chemie GmbH, Steinheim, Germany). The isolation of macrophages and monocytes from the collected cells was performed by MACS magnetic cell sorting with CD14 MicroBeads (human) (Miltenyi Biotec GmbH, Bergisch Gladbach, Germany). The CD14 positive (CD14+) cells (macrophages and monocytes) were first magnetically labeled with MACS CD14 MicroBeads. The cell suspension was loaded on a MS MACS Column which was placed in the magnetic field of a MiniMACS Separator. The magnetically labeled CD14+ cells were retained in the column and separated from the unlabelled cell fraction.\nThe mRNA isolation from macrophages and monocytes was performed with the High Pure RNA Isolation Kit (Roche Applied Science, Penzberg, Germany). The cells were first lysed and the intact and undegraded RNA was adsorbed to a glass fibre fleece. Simultaneously, RNAses were inactivated. Furthermore, residues of contaminating DNA were digested and the RNA was purified from salts, proteins and other impurities. Purity of the isolated mRNA was assessed by real-time PCR (LightCycler II, Roche Diagnostics, Mannheim, Germany). The transcription of mRNA in cDNA was performed on a thermocycler (Biozym Diagnostik GmbH, Oldendorf, Germany) according to a standardized protocol (‘Transcriptor First Strand cDNA Synthesis Kit’, Instruction Manual Version 1, 2004, Roche Applied Science, Penzberg, Germany).\nSequence specific primers were designed by TIB MOLBIOL (Syntheselabor GmbH, Berlin, Germany) to amplify the gene sequences of Rel-A, p105, IκB-α, IκB-β and IL-6. The primers for TNF-α were taken from “Rapid Cycle Real-Time PCR Methods and Applications Quantification” (31). The primers for MIF and MMP-9 were reproduced from previous reports (12, 32). A list of the primers used for the quantification experiments, the primer-specific PCR protocols and the specific amplification product melting points are provided in Table 1. An additional agarose gel electrophoresis assay was performed to verify the correct length of the amplification products.\nThe RNA quantification in this study, was performed by means of a calibrator-normalized relative quantification method based on the LightCycler II system (Roche Diagnostics, Mannheim, Germany), where quantification of a target and a reference gene is a function of PCR efficiency and the sample crossing point. The sample crossing point is the amplification cycle during an amplification assay, at which the fluorescence of a probe rises above background fluorescence. This occurs usually at the second derivative maximum (fastest change in fluorescence). […] In these experiments, β-actin is the most abundant protein in eukaryotic cells with constant expression (33). […] The principle of this method is the determination of the relative amount of the target gene and the reference gene for each sample and for the calibrator. […] All experiments were performed in triple replications.\nData are presented as arithmetic mean±standard deviation (SD) for continuous variables or mean±SEM for percent changes from baseline and as the number/proportion of patients for categorical variables."}, "[2]": {"system": "patients with type 2 diabetes and established atherosclerosis", "assay": "Clinical and biochemical observation parameters, double-blind placebo-controlled study, 4 weeks add-on treatment", "assay_type": "in vivo, human", "conditions": "mean ± SD; for Glucose: fasting; for HOMAIR: insulin resistance score; for IL-6 / MIF / MMP-9: plasma protein; for Adiponectin / Angiotensin II / Complement factor C3 / Insulin / Intact proinsulin / P-seclectin / sCD40L: plasma"}, "[3]": {"conditions": "in vivo; cited from earlier work"}, "[4]": {"conditions": "endpoint, after 4 weeks of pioglitazone"}, "[5]": {"conditions": "endpoint, after 4 weeks 45 mg pioglitazone add-on"}}}
{"smiles": "CN(C)C(=N)N=C(N)N", "note": "[metformin]", "values": [{"measurement": "Plasma concentration of MIF and transcription of MIF mRNA in mononuclear cells", "setting": "MIF", "value": "reduced"}]}
{"smiles": "CCc1ccc(CCOc2ccc(CC3SC(=O)NC3=O)cc2)nc1", "note": "(stereo not drawn) [pioglitazone]", "values": [{"measurement": "IL-6 mRNA expression", "setting": "[1]; [4]", "value": "1.05 ± 0.46"}, {"measurement": "IκB-β mRNA expression", "setting": "[1]; [4]", "value": "3.30 ± 2.41"}, {"measurement": "MIF mRNA expression", "setting": "[1]; [4]", "value": "0.84 ± 0.31"}, {"measurement": "MMP-9 mRNA expression", "setting": "[1]; [4]", "value": "1.48 ± 1.18"}, {"measurement": "RelA (p65 subunit of NF-κB) mRNA expression", "setting": "[1]; [4]", "value": "0.95 ± 0.44"}, {"measurement": "TNFα mRNA expression", "setting": "[1]; [4]", "value": "1.70 ± 0.93"}, {"measurement": "p105 (p50 subunit of NF-κB) mRNA expression", "setting": "[1]; [4]", "value": "1.33 ± 0.46"}, {"measurement": "IL-6 mRNA expression", "setting": "[1]; pioglitazone arm, baseline", "value": "1.13 ± 0.52"}, {"measurement": "IκB-β mRNA expression", "setting": "[1]; pioglitazone arm, baseline", "value": "3.17 ± 2.05"}, {"measurement": "MIF mRNA expression", "setting": "[1]; pioglitazone arm, baseline", "value": "0.98 ± 0.40"}, {"measurement": "MMP-9 mRNA expression", "setting": "[1]; pioglitazone arm, baseline", "value": "2.29 ± 2.68"}, {"measurement": "RelA (p65 subunit of NF-κB) mRNA expression", "setting": "[1]; pioglitazone arm, baseline", "value": "1.20 ± 0.74"}, {"measurement": "TNFα mRNA expression", "setting": "[1]; pioglitazone arm, baseline", "value": "1.88 ± 1.20"}, {"measurement": "p105 (p50 subunit of NF-κB) mRNA expression", "setting": "[1]; pioglitazone arm, baseline", "value": "1.63 ± 0.80"}, {"measurement": "BMI", "setting": "[2]; [5]", "value": "31.4 ± 4.5", "unit": "kg/m^2"}, {"measurement": "Diastolic blood pressure", "setting": "[2]; [5]", "value": "80 ± 11", "unit": "mmHg"}, {"measurement": "HDL cholesterol", "setting": "[2]; [5]", "value": "1.26 ± 0.26", "unit": "mmol/L"}, {"measurement": "HbA1c", "setting": "[2]; [5]", "value": "6.8 ± 0.9", "unit": "%"}, {"measurement": "LDL cholesterol", "setting": "[2]; [5]", "value": "2.52 ± 0.76", "unit": "mmol/L"}, {"measurement": "Systolic blood pressure", "setting": "[2]; [5]", "value": "137 ± 18", "unit": "mmHg"}, {"measurement": "Total Cholesterol", "setting": "[2]; [5]", "value": "4.78 ± 1.09", "unit": "mmol/L"}, {"measurement": "hsCRP", "setting": "[2]; [5]", "value": "1.9 ± 1.7", "unit": "mg/L"}, {"measurement": "sICAM", "setting": "[2]; [5]", "value": "319 ± 86", "unit": "µg/L"}, {"measurement": "sVCAM", "setting": "[2]; [5]", "value": "943 ± 452", "unit": "µg/L"}, {"measurement": "Glucose", "setting": "[2]; [5]", "value": "122 ± 35", "unit": "mg/dL"}, {"measurement": "Glucose", "setting": "[2]; pioglitazone arm, baseline", "value": "142 ± 40", "unit": "mg/dL"}, {"measurement": "HOMAIR", "setting": "[2]; [5]", "value": "3.9 ± 2.6"}, {"measurement": "HOMAIR", "setting": "[2]; pioglitazone arm, baseline", "value": "5.9 ± 4.4"}, {"measurement": "BMI", "setting": "[2]; pioglitazone arm, baseline", "value": "31.0 ± 4.3", "unit": "kg/m^2"}, {"measurement": "Diastolic blood pressure", "setting": "[2]; pioglitazone arm, baseline", "value": "83 ± 11", "unit": "mmHg"}, {"measurement": "HDL cholesterol", "setting": "[2]; pioglitazone arm, baseline", "value": "1.18 ± 0.24", "unit": "mmol/L"}, {"measurement": "HbA1c", "setting": "[2]; pioglitazone arm, baseline", "value": "7.0 ± 1.1", "unit": "%"}, {"measurement": "LDL cholesterol", "setting": "[2]; pioglitazone arm, baseline", "value": "2.46 ± 0.80", "unit": "mmol/L"}, {"measurement": "Systolic blood pressure", "setting": "[2]; pioglitazone arm, baseline", "value": "144 ± 15", "unit": "mmHg"}, {"measurement": "Total Cholesterol", "setting": "[2]; pioglitazone arm, baseline", "value": "4.63 ± 0.99", "unit": "mmol/L"}, {"measurement": "hsCRP", "setting": "[2]; pioglitazone arm, baseline", "value": "2.9 ± 1.7", "unit": "mg/L"}, {"measurement": "sICAM", "setting": "[2]; pioglitazone arm, baseline", "value": "326 ± 90", "unit": "µg/L"}, {"measurement": "sVCAM", "setting": "[2]; pioglitazone arm, baseline", "value": "915 ± 409", "unit": "µg/L"}, {"measurement": "IL-6", "setting": "[2]; [5]", "value": "3.2 ± 0.1", "unit": "ng/L"}, {"measurement": "MIF", "setting": "[2]; [5]", "value": "9.6 ± 3.5", "unit": "µg/L"}, {"measurement": "MMP-9", "setting": "[2]; [5]", "value": "284 ± 101", "unit": "µg/L"}, {"measurement": "IL-6", "setting": "[2]; pioglitazone arm, baseline", "value": "3.3 ± 0.5", "unit": "ng/L"}, {"measurement": "MIF", "setting": "[2]; pioglitazone arm, baseline", "value": "10.4 ± 5.3", "unit": "µg/L"}, {"measurement": "MMP-9", "setting": "[2]; pioglitazone arm, baseline", "value": "344 ± 118", "unit": "µg/L"}, {"measurement": "Adiponectin", "setting": "[2]; [5]", "value": "22.1 ± 9.1", "unit": "µg/mL"}, {"measurement": "Angiotensin II", "setting": "[2]; [5]", "value": "8.0 ± 8.8", "unit": "µg/L"}, {"measurement": "Complement factor C3", "setting": "[2]; [5]", "value": "1.5 ± 0.3", "unit": "g/L"}, {"measurement": "Insulin", "setting": "[2]; [5]", "value": "12 ± 7", "unit": "μU/ml"}, {"measurement": "Intact proinsulin", "setting": "[2]; [5]", "value": "19 ± 17", "unit": "pmol/L"}, {"measurement": "P-seclectin", "setting": "[2]; [5]", "value": "93 ± 22", "unit": "µg/L"}, {"measurement": "sCD40L", "setting": "[2]; [5]", "value": "1.1 ± 1.1", "unit": "µg/L"}, {"measurement": "Adiponectin", "setting": "[2]; pioglitazone arm, baseline", "value": "8.7 ± 3.5", "unit": "µg/mL"}, {"measurement": "Angiotensin II", "setting": "[2]; pioglitazone arm, baseline", "value": "10.2 ± 9.2", "unit": "µg/L"}, {"measurement": "Complement factor C3", "setting": "[2]; pioglitazone arm, baseline", "value": "1.6 ± 0.4", "unit": "g/L"}, {"measurement": "Insulin", "setting": "[2]; pioglitazone arm, baseline", "value": "17 ± 10", "unit": "μU/ml"}, {"measurement": "Intact proinsulin", "setting": "[2]; pioglitazone arm, baseline", "value": "30 ± 37", "unit": "pmol/L"}, {"measurement": "P-seclectin", "setting": "[2]; pioglitazone arm, baseline", "value": "95 ± 20", "unit": "µg/L"}, {"measurement": "sCD40L", "setting": "[2]; pioglitazone arm, baseline", "value": "1.6 ± 1.8", "unit": "µg/L"}]}
{"smiles": "Cc1c(C)c2c(c(C)c1O)CCC(C)(COc1ccc(CC3SC(=O)NC3=O)cc1)O2", "note": "(stereo not drawn) [troglitazone]", "values": [{"measurement": "Reason for being taken from the market", "setting": "[3]", "value": "hepatotoxiciy"}]}
